{"source": "paper PMC10424187", "about": "“Structure-Guided Design and Synthesis of a Pyridazinone Series of Trypanosoma cruzi Proteasome Inhibitors” (Journal of Medicinal Chemistry, 2023)", "key": {"T. cruzi [1]": {"system": "T. cruzi", "assay": "T. cruzi in vitro washout assay", "assay_type": "cell-based, Trypanosoma cruzi", "details": "8 days of treatment, 50-fold EC50", "text": "T. cruzi in vitro washout assay\nThis assay was run as previously reported:\nMarco M.; Miles T.J.; Naylor C.; Osuna-Cabello M.; Paterson C.; Read K.D.; Pinto E.G.; Riley\nJ.; Scullion P.; Shishikura Y.; Simeons F.; Stojanovski L.; Svensen N.; Thomas J.; Wyatt P.G.;\ndisubstituted piperazines for the treatment of Chagas disease. […]"}, "[2]": {"assay": "Mouse microsomal intrinsic clearance", "assay_type": "in vitro ADME", "details": "mouse liver microsomes, scaling 52.5 mg microsomal protein/g liver", "protocol": "Mouse microsomal intrinsic clearance.\nThis assay was conducted as previously described:\nJ.; Reid, I. H.; Hill, A. P.;\nwere prepared by adding a volume (5 µL) of the 10 mM solution to a volume (195 µL) of […]"}, "[3]": {"assay": "Kinetic solubility by chemiluminescent nitrogen detection (CLND)", "assay_type": "physicochemical"}, "[4]": {"assay": "In vivo blood exposure / pharmacokinetics in mice", "parameters": "species or system mouse", "quoted_text": "Blood samples (10 μL) where taken\nand 24 hours post dose samples for I.V. leg only) and mixed with two volumes of deionized water (20 μL). After suitable sample preparation, the concentration of test compound in the whole blood from treated mice was determined by UPLC-MS/MS using a Quattro Premier XE (Waters, USA). Pharmacokinetic parameters were derived from the mean blood concentration time curve using PK solutions software v 2.0 (Summit Research Services, USA)."}, "Brain-blood ratio": {"assay": "Brain-blood ratio", "assay_type": "in vivo", "details": "mouse"}, "Brain tissue binding": {"assay": "Brain tissue binding", "assay_type": "in vitro ADME", "details": "read-out: brain tissue free fraction"}, "T. cruzi [5]": {"system": "T. cruzi", "assay": "Chronic mouse efficacy model of Chagas disease", "assay_type": "in vivo, Balb/c mice", "details": "5 days at 50 mg/kg bid", "protocol": "All regulated procedures on living animals were carried out under the authority of a project license issued by the Home Office under the Animals (Scientific Procedures) Act 1986, as amended in 2012 (and in compliance with EU Directive EU/2010/63). Infected animals had access to food and water ad libitum and were housed under a 12-hour light/dark photoperiod.\nAnimals used in these experiments were female NMRI and Balb/c mice (Harlan, UK). […]\nIn vivo Mouse Efficacy Studies.\nThe T. cruzi chronic efficacy study was run in Balb/c mice as previously described:\nM.D. Lewis, A. Fortes Francisco, M.C. Taylor, J.M. Kelly, A new experimental model for assessing drug efficacy against Trypanosoma cruzi infection based on highly sensitive in vivo imaging, J. Biomol. Screen 20 (1) (2015) 36–43"}, "[6]": {"system": "intracellular T. cruzi X10/7 A1 amastigotes"}, "P-gp (MDR1)": {"system": "P-gp (MDR1)", "assay": "in vitro", "details": "dog, MDCK-MDR1", "quoted_text": "MDR1-MDCK Permeability assay\nBi-directional transport was assessed in the presence and absence of Pgp inhibitor GF120918\n(Elacridar). MDCK-MDR1 cells (Netherlands Cancer Institute) were maintained in culture\n(DMEM, Gibco Cat: 61965-026 supplemented with 1% penicillin/streptomycin, 10% FCS)\nuntil required. For experimentation, cells were seeded onto individual transwell ’Thincerts’\n(Greiner, Cat 662610) at a density of 35,000 cells/well. Cells were grown at 37 °C, 5% CO2 for\n3 days. On day 4, media was replaced with fresh media and incubated for 1 hour. Prior to\nexperimentation, cells were incubated with Dulbeccos PBS (Gibco, 14287-080) with/without\nPgp inhibitor, 2 µM GF120918, to ensure inactivation of the Pgp transporter. Cells were then\ndosed apically and basolaterally (1 µM test compound, 10 µM Lucifer Yellow (1% DMSO)\nwith/without 2 µM GF120918) for 1 hour. 100 mL of solution from donor and receiver wells\nwas removed to a 96 well deepwell plate alongside 100 mL of dosing solution. 150 µL of\nacetonitrile containing internal standard (e.g., 100 ng/mL Sulfadimethoxine) was then added\nto all samples prior to analysis by LC-MS/MS. Amprenavir (positive control) were run […]\na Lucifer Yellow standard curve for fluorescence determination of Lucifer Yellow\nconcentrations. Papp (apparent permeability) values were calculated for each compound for […]\nefflux ratios (ER) determined using the following equations: […]"}, "FaSSIF solubility": {"assay": "FaSSIF solubility", "details": "fasted state simulated intestinal fluid", "quoted_text": "undissolved material using a proprietary filter (Millipore Multiscreen HTS filter, 96-well\nformat). Samples were then drawn through the filter using vacuum. The filtrate from the above\nwas analysed for dissolved drug compound using a truncated UHPLC methodology. A Shimadzu Nexera X2 UHPLC system was used, with a reversed-phase column and a simple\nformic acid gradient elution. The UHPLC parameters are shown below:\nMobile phase component A HPLC water plus 0.1% formic acid\nMobile phase component B HPLC acetonitrile plus 0.1% formic acid\nRe-equilibration time: 0.6 min\nAutosampler temperature: 25°C\nColumn: Hypersil Gold, C18 1.9 µm, 50 x 2.1 mm\nA calibration solution was prepared in the following way: The same 10 mM solution used to\nwas then diluted with 50:50 acetonitrile:water to give a 50 µM solution. Aliquots (0.2, 2.0 and\n5.0 µL) of this 50 µM solution were then injected onto the UHPLC system and the areas of the\nresultant peaks integrated to produce a calibration line. Aliquots of the test sample filtrate (0.4\nand 5.0 µL) were then injected onto the UHPLC system and the resultant peak areas for any\npeaks corresponding to the test compound determined and quantified using the calibration line\n(the injection volume that gave a peak area closest to the calibrated range was used for"}, "Human 20S proteasome": {"molecular_target": "Human 20S proteasome (Homo sapiens, UniProt P28074+P49721)", "assay": "human proteasome assay (chymotrypsin-like activity, Suc-LLVY-Rho-110-DPro)", "quoted_text": "T. cruzi and human proteasome assays\n(§1) The T. cruzi proteasome was partially purified as described in the above reference and Human\n(§2) 20S proteasome was purchased from Boston Biochem (now R&D Systems, catalogue number\n(§3) a Tecan Fluent to titrate over 11 points in Labcyte Echo-compatible Greiner Bio-One 384 well\n(§4) polypropylene microplates. Subsequently, 100 nl of test compound titrations were transferred\n(§5) to black Greiner Bio-One low volume 384 well microplates using a Labcyte Echo acoustic\n(§6) 50 mM HEPES pH 7.5, 150 mM sodium chloride, 5% Glycerol, 1 mM dithiothreitol, 1 mM\n(§7) CHAPS in deionised, filtered water (all chemicals purchased from Sigma Aldrich). Human 20S\n(§8) These enzyme solutions were prepared immediately prior to assay initiation and stored at 4 °C\n(§9) To monitor the Chymotrypsin-like activity of the T. cruzi and Human 20S proteasome proteins\n(§10) a self-quenched, Rhodamine 110-labelled peptide with the sequence Suc-LLVY-Rho-110-\n(§11) DPro was used (prepared by Cambridge Research Biochemicals. Suc is succinyl, while DPro\n(§12) refers to ᴅ-proline). The peptide was initially prepared from solid as a 10 mM solution in 100%\n(§13) DMSO and stored at -20 °C. Prior to use in the assay, an aliquot was thawed at room\n(§14) to twofold Km. For use with the Human 20S proteasome, the Suc-LLVY-Rho-110-DPro\n(§15) peptide was diluted in assay buffer to a concentration equivalent to twofold Km, which for this\n(§16) enzyme was 2 μM. The peptide solutions were protected from light and stored at 4 °C before\n(§17) A Multidrop Micro (Thermo Fisher), using a low volume dispense cassette, was used to add\n(§18) the assay solutions to the test compounds in the low volume 384-well microplates. Prior to\n(§19) addition of proteasome solution, 5 μl of assay buffer was added to one column (containing 100\n(§20) nl, 100% DMSO) to act as no enzyme control to mimic full inhibition. Subsequently, 5 μl of\n(§21) proteasome solution (either T. cruzi or Human 20S) was added to all wells on the test\n(§22) microplate apart from the column containing 5 μl assay buffer. The microplate was then spun\n(§23) using a suitable bench top centrifuge for 1 minute at 1000 rpm, before incubation at room\n(§24) Following the initial incubation, 5 μl of substrate solution was then added to all wells on the\n(§25) test microplate using a Multidrop Micro equipped with a discrete low volume dispense cassette.\n(§26) The test microplates were then spun for 10 seconds at 1000 rpm before being rapidly moved to\n(§27) a multi-mode microplate reader, capable of monitoring fluorescence intensity. The microplate\n(§28) reader used for these studies was a Tecan M1000 Pro, equipped with quad monochromators.\n(§29) 530 ± 5 nm. A series of fluorescence intensity measurements were taken every 30 seconds for\n(§30) Subsequently, the fluorescence intensity measurements (relative fluorescence units, RFU) were\n(§31) fit to a simple linear regression model (y = A + Bx, where y refers to the fluorescence intensity\n(§32) and x refers to the time in seconds) to determine the initial rate of reaction. The initial rate for\n(§33) every compound concentration tested was then fit a 4-parameter logistic model: y = (A + (B -\n(§34) A)) / (1 + (x / C)D), where y refers to the assay response, x refers to the inhibitor concentration,\n(§35) A and B are the range values (minimum and maximum, respectively), C is the IC50 value and\n(§36) D is the slope. Potency values were then reported as pIC50, which is the negative log of the\n(§37) IC50 (on a molar scale). Data analysis was automated and carried out using the ActivityBase"}, "T. cruzi proteasome": {"molecular_target": "T. cruzi proteasome (Trypanosoma cruzi, UniProt V5BU39+V5C017)", "sequence (V5BU39 entry or part of it)": "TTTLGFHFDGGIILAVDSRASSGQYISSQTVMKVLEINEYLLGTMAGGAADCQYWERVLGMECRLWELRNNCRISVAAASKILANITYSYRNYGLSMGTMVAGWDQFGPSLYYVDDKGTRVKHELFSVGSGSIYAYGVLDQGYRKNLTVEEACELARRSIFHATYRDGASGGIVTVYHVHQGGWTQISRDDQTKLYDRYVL", "sequence (V5C017 entry or part of it)": "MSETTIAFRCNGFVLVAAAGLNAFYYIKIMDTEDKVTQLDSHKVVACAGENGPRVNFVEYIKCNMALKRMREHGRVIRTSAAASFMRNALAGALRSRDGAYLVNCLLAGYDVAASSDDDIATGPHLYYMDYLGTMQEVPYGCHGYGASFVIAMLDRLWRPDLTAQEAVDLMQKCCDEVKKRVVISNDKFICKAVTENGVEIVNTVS", "assay": "T. cruzi proteasome assay (chymotrypsin-like activity, Suc-LLVY-Rho-110-DPro)", "quoted_text": "T. cruzi and human proteasome assays\nas §1, §2, §3, §4, §5, §6, §7, §8, §9, §10, §11, §12, §13, §14, §15, §16, §17, §18, §19, §20, §21, §22, §23, §24, §25, §26, §27, §28, §29, §30, §31, §32, §33, §34, §35, §36, §37"}}, "note": "“And” between values parts separate entries of the source, which are not always exact repeats. Equal values may be shown once."}
{"smiles": "O=C(Nc1ccc(F)c(-c2cn3nc(N4CCOCC4)cnc3n2)c1)N1CCCC1", "note": "[Compound 4]", "values": [{"measurement": "parasites relapsing on day", "setting": "T. cruzi [1]", "value": 34, "unit": "days"}, {"measurement": "Mouse CLi", "setting": "[2]", "value": "<0.5", "unit": "mL/min/g"}, {"measurement": "aqueous solubility", "setting": "[3]", "value": 59, "unit": "µM"}, {"measurement": "predicted brain exposure relative to T. cruzi EC99", "setting": "[4]; from blood exposure in chronic efficacy model, brain-blood ratio and brain free fraction", "value": "well below T. cruzi EC99"}, {"measurement": "time blood exposure above T. cruzi EC99", "setting": "[4]; mouse VL efficacy study, 50 mg/kg, also when corrected for plasma protein binding", "value": "> 8", "unit": "h"}, {"measurement": "Kp", "setting": "Brain-blood ratio", "value": 0.07}, {"measurement": "fraction unbound", "setting": "Brain tissue binding", "value": 0.043}, {"measurement": "effect on parasite levels", "setting": "T. cruzi [5]", "value": "no visible effect on parasite levels"}, {"measurement": "EC50", "setting": "[6]", "value": "100 nM and 126 nM and 63.1 nM"}, {"measurement": "Emax", "setting": "[6]", "value": "95% and 90% and 93% and 98% and 99% and 96% and 92% and 100%"}, {"measurement": "efflux ratio at 1 h, 1 µM", "setting": "P-gp (MDR1)", "value": 22}, {"measurement": "FaSSIF solubility", "setting": "FaSSIF solubility", "value": 32, "unit": "µM"}, {"measurement": "IC50", "setting": "Human 20S proteasome; Hs Prot pIC50, individual replicate", "value": "25100 nM and 79400 nM"}, {"measurement": "Hs Prot Hill Slope", "setting": "Human 20S proteasome; individual replicate", "value": "1.7 and 0.9 and 1.3"}, {"measurement": "Hs Prot Max Response (%)", "setting": "Human 20S proteasome; individual replicate", "value": "35% and 21% and 42% and 24% and 10% and 50% and 28% and 48% and 38% and 29% and 47% and 41% and 54% and 44% and 52% and 49% and 40%"}, {"measurement": "Hs Prot pIC50", "setting": "Human 20S proteasome; individual replicate", "value": "< 4"}, {"measurement": "Hs Prot pIC50", "setting": "Human 20S proteasome; mean of at least three independent replicates", "value": "<4"}, {"measurement": "IC50", "setting": "T. cruzi proteasome; Tc Prot pIC50, individual replicate", "value": "< 1.58 nM and 3.98 nM and 7.94 nM and 1.58 nM and 2.51 nM and 12.6 nM and 5.01 nM and 10 nM"}, {"measurement": "Tc Prot Hill Slope", "setting": "T. cruzi proteasome; individual replicate", "value": "1.0 and 0.8 and 0.7 and 0.9 and 0.75 and 1.1 and 0.95"}, {"measurement": "Tc Prot Max Response (%)", "setting": "T. cruzi proteasome; individual replicate", "value": "89% and 88% and 85% and 90% and 87%"}, {"measurement": "Emax", "setting": "T. cruzi proteasome; read-out: Tc Prot Max Response (%), individual replicate", "value": 91, "unit": "%"}]}
